In ChEMBL document CHEMBL1201862, “PubChem BioAssay data set” (2004):
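1) Cells in 96-well plates. 2) Compound, 48 h, 5 concentrations. 3) Linear interpolation between surrounding doses. 4) Unreached endpoint = highest concentration. GI50 marks 50% less growth.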 Calls of active or inactive are those of the source. Rule as the data show it: active = GI50 up to about 1.1 µM and inactive = higher.

Assays:
Test in all cases: growth of human tumour cells (NCI), 48 h
HOP-62 = test system: HOP-62
SF-268 = test system: SF-268
OVCAR-8 = test system: OVCAR-8
SK-MEL-28 = test system: SK-MEL-28
CCRF-CEM = test system: CCRF-CEM
UACC-62 = test system: UACC-62
SF-539 = test system: SF-539
SR = test system: SR
RXF 393 = test system: RXF 393
HCC 2998 = test system: HCC 2998
SK-OV-3 = test system: SK-OV-3
786-0 = test system: 786-0
OVCAR-5 = test system: OVCAR-5
TK-10 = test system: TK-10
K562 = test system: K562
OVCAR-3 = test system: OVCAR-3
M14 = test system: M14
HOP-92 = test system: HOP-92
SNB-75 = test system: SNB-75
SNB-19 = test system: SNB-19

Measured: GI50

Nc1ccc([As](=O)(O)O)cc1 [ARSANILIC ACID]
inactive: HOP-62 > 100 µM | SF-268 > 100 µM | OVCAR-8 > 100 µM | SK-MEL-28 > 100 µM | CCRF-CEM > 100 µM | UACC-62 > 100 µM | SF-539 > 100 µM | SR > 100 µM | RXF 393 > 100 µM | HCC 2998 > 100 µM | SK-OV-3 > 100 µM | 786-0 > 100 µM | OVCAR-5 > 100 µM | TK-10 > 100 µM | K562 > 100 µM | OVCAR-3 > 100 µM | M14 > 100 µM | HOP-92 > 100 µM | SNB-75 > 100 µM | SNB-19 > 100 µM
